Among the data in PubChem BioAssay AID1902 (Broad Institute, 2009) are EC50 values, retold here.

Activity calls are given as the source filed them.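 Rule for the calls: active = EC50 no more than a set limit of log units above the highest dose; inactive = the rest.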

The assay has as its target S. pyogenes SKKanGAS, kanamycin survival, BacTiterGlo, 6 h. In words: SKKanGAS survival reduction under kanamycin, dose response, streptokinase promoter inhibitor project, SKKanGAS strain, luminescence, dose confirmation (AID 1902).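 Note: lower survival reflects blocked streptokinase promoter driving kanamycin resistance gene.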
As to `Cc1cccc(C)c1OC1(c2ccccc2)OC(=O)c2ccccc21` (configuration not stated), the EC50 was 2.85 µM. To `Cc1cccc(NCc2nc3ccccc3n2Cc2ccccc2)c1` belongs 2.75 µM. To `Cc1ccc(CNC(=O)c2ccc([N+](=O)[O-])o2)cc1` belongs 4.67 µM; to `CC1=NN(c2nc3ccccc3[nH]2)C(=O)C1Cc1ccccc1` (configuration not stated), 0.507 µM. In the case of `Cc1cc(N2CCN(c3ccccc3Cl)CC2)n2cc(-c3ccccc3)nc2n1`, the EC50 is 6.63 µM. To `CC(NS(=O)(=O)/C=C/c1ccccc1)C(=O)O` (configuration not stated) belongs > 15 µM (inactive); to `CCOc1ccc(N(CC(=O)NCc2ccc(C)cc2)S(=O)(=O)c2c(C)[nH]c(=O)[nH]c2=O)cc1`, > 15 µM (inactive); to `COc1ccc(NC(=O)c2c[nH]n3c(=O)cc(C4CCN(C(=O)OC(C)(C)C)CC4)nc23)cc1Cl`, 3.8 µM.

For the molecule `C=C(C)C1Cc2c(C)nn(-c3nc(C)cc(C)n3)c2C1` (configuration not stated), the EC50 was 0.694 µM.

Turning to `O=c1cc(-c2ccc(O)c(-c3c(O)cc(O)c4c(=O)cc(-c5ccc(O)cc5)oc34)c2)oc2cc(O)cc(O)c12`, the EC50 is 2.3 µM. For `O=C(/C=C/c1cccc(C(F)(F)F)c1)Nc1cccc(C(F)(F)F)c1` the value was 3.3 µM. Turning to `O=[N+]([O-])c1ccc(/C=[N+](\[O-])CCO)o1`, the EC50 was 5.78 µM. For `O=C(N/N=C/c1cc([N+](=O)[O-])cc(Br)c1O)C12CC3CCC(CC(C3)C1)C2` the value was 5.07 µM. To `CCc1nc2c3cnn(-c4cc(Cl)ccc4C)c3ncn2n1` belongs 12.8 µM; to `O=C(O)CC/C(=C\c1cc2c(cc1Br)OCO2)c1nc2ccccc2s1`, 10.5 µM. To `Cc1nc(-c2ccc(S(=O)(=O)Nc3ccc(Br)cc3Cl)s2)cs1` belongs 5.14 µM. Turning to `CC(C)(C)c1nc(NC(=O)Nc2ccccc2)sc1Br`, the EC50 was 6.3 µM. For `O=C1/C(=C\c2cccc(O)c2O)SC(=S)N1Cc1ccccc1` the value was 2.2 µM. Consider `COc1cccc(NC(=O)NCCCCc2ccccc2)c1`, for which the EC50 is > 15 µM (inactive). To `CCOC(=O)c1cccc(NC(=S)N2CCN(c3ncc4c(=O)c(C(=O)O)cn(CC)c4n3)CC2)c1` belongs 6.28 µM.

As for `Cc1cc(O)c(NC(=S)NC(=O)c2ccc(-c3ccc(Cl)cc3)o2)cc1C`, the EC50 was 0.76 µM. Turning to `CCCC(=O)NC(c1ccc(C(C)C)cc1)c1ccc2cccnc2c1O` (configuration not stated), the EC50 is 5.54 µM. As to `CN1Cc2cc(C(=O)c3cc(Cl)cc(CSc4ncccn4)c3O)cnc2NC1=O`, the EC50 was 9.39 µM. To `O=C(Nc1nnc(-c2ccccn2)o1)c1cccc(Cl)c1` belongs 1.66 µM. As for `Cc1ccc(C23CC4CC(CC(C(=O)N5CCN(C)CC5)(C4)C2)C3)cc1`, the EC50 was > 15 µM (inactive). For `O=C(Cc1ccccc1)N/N=C/c1ccccn1` the value was > 15 µM (inactive); for `CCOc1cccc(N(C(=O)c2ccco2)C(C(=O)NC2CCCC2)c2cccnc2)c1` (configuration not stated), > 15 µM (inactive); for `Cc1cccc(NC(=S)Nc2ccc(Cl)c(Cl)c2)c1`, 9.6 µM. To `CCCCCCCCCCCC(=O)c1c(O)cccc1O` belongs 1.58 µM; to `Oc1ccc(/C=N/Nc2nc(N3CCCCCC3)nc(N3CCCCCC3)n2)c(O)c1`, 1.73 µM. To `CCn1cc(C(=O)O)c(=O)c2cc(F)c(N3CCN(C(=S)NC(=O)c4cc(OC)cc(OC)c4)CC3)cc21` belongs 2.91 µM; to `O=C1NC(=Nc2ccc(Cl)cc2)SC1Cc1cc(Cl)ccc1Cl` (configuration not stated), 2.97 µM. `CCN(CC(=O)NCC1CCCO1)S(=O)(=O)c1ccc(Cl)cc1` (configuration not stated): the EC50 is > 15 µM (inactive). To `CCCCCNC(=O)c1ccc2c(=O)[nH]c3c(C(=O)NCC4CCCO4)sc(=S)n3c2c1` (configuration not stated) belongs 2.17 µM. With `C/C(=N\NC(=O)c1ccccc1O)C1C(=O)c2ccccc2C1=O`, the EC50 is 4.69 µM. `O=C(O)c1ccc(N2C(=O)CC(SC(=NCc3ccc4c(c3)OCO4)Nc3ccc(F)cc3)C2=O)cc1` (configuration not stated): the EC50 was 8.24 µM. In the case of `COc1ccc2nc(Nc3nc4cc5c(cc4s3)OCO5)sc2c1`, the EC50 was 1.02 µM. Consider `O=C(COc1ccc(Cl)cc1Cl)Nc1ccc(C(=O)Nc2ccccc2C(=O)O)cc1`, for which the EC50 was 2.3 µM. To `Cc1cccc(NC(c2ccc(C)s2)c2ccc3ccc(C)nc3c2O)n1` (configuration not stated) belongs 3.9 µM; to `CN(C)/C=C1\SC(=S)N(c2ccc(Br)cc2)C1=O`, 5.37 µM. As to `NC(N)=N/N=C/c1ccc(N(c2ccccc2)c2ccccc2)cc1`, the EC50 was 2.06 µM.

For the molecule `Cc1ccc(NC(=O)CN(C)Cc2nc3c(Br)cc(Br)cc3c(=O)[nH]2)cc1`, the EC50 is 3.79 µM. For `CC(C)(C)C(=O)NC(=S)NNC(=O)c1ccc(Cl)cc1Cl` the value was 0.402 µM; for `COc1ccccc1N1CC(C(=O)Nc2nnc(SCC(=O)NCC3CCCO3)s2)CC1=O` (configuration not stated), > 15 µM (inactive). Consider `COc1cc(/C=C2/SC(=S)N(Cc3ccccc3)C2=O)ccc1O`, for which the EC50 was 5.8 µM. To `COc1ccc(O)c(-c2cc(-c3cccc(Br)c3)n[nH]2)c1` belongs 9.97 µM. For `CCCCCCCCCCOC(=O)Cn1c(COc2ccccc2)[n+](C)c2ccccc21` the value was 7.96 µM. For `COc1ccc(O)c(C(=O)c2cc(SCC(=O)O)c3nc4sc5c(c4c(=O)n3c2)CCCC5)c1` the value was 4.1 µM; for `O=C(CN(c1ccc(Cl)c(C(F)(F)F)c1)S(=O)(=O)c1ccccc1)N/N=C/c1cccc2c1OCCO2`, 13.4 µM. Turning to `O=C(Nc1nc2ccccc2n1CCOc1ccccc1)c1ccco1`, the EC50 was 6.87 µM. To `COc1cccc(/C=C/C(=C2/C(=O)N(c3ccccc3)N=C2C)c2ccc(Br)cc2)c1OC` belongs > 15 µM (inactive); to `COc1cc(N=c2c([N+](=O)[O-])nn(-c3ccc4c(c3)OCCO4)n2O)cc(OC)c1`, 5.24 µM. For `O=C(CSc1nnc(NC(=O)c2ccccc2)s1)NCC1CCCO1` (configuration not stated) the value was > 15 µM (inactive). For `O=C(Cc1cccs1)N/N=C/c1ccco1` the value was 2.9 µM; for `Cc1cccc(C)c1OCC(=O)NNC(=S)NC(=O)C1CC1`, 0.304 µM.

Turning to `Cc1cccc(C)c1NC(=O)CN(C)CC(=O)Nc1sc2c(c1C(N)=O)CCC2`, the EC50 is > 15 µM (inactive). To `C=CCn1c(O)c(C(CC)=Nc2ccc(N(C)C)cc2)c(=O)[nH]c1=O` belongs 3.05 µM; to `CCCOc1cccc(-c2cc(C(=O)N/N=C/c3ccccn3)c3ccccc3n2)c1`, 1.87 µM; to `CC(C)Sc1cc(N2CCCC2)nc(-c2ccccc2)n1`, 11.2 µM. For `O=C(NC(=S)N1CCN(c2nc(-c3ccccc3)cs2)CC1)c1cccnc1` the value was 4.08 µM; for `O=C(N/N=C/c1cc(Br)ccc1O)C(=O)Nc1ccccc1OC(F)(F)C(F)F`, 1.44 µM.

On to `O=C(Nc1nc(N2C(=O)c3ccccc3C2=O)n(-c2ccccc2)n1)c1ccc(Cl)cc1`, for which the EC50 is 10.3 µM. With `Cc1ccc(NC(=O)c2nc[nH]c2C(=O)N[C@@H](CCCCNC(=O)OC(C)(C)C)C(=O)OC(C)(C)C)cc1`, the EC50 was 3.76 µM. For `O=Nc1c(O)c2ccccc2c2ccccc12` the value was 2.34 µM; for `COc1cc(OC)cc(C(=O)Nc2nc3ccccc3[nH]2)c1`, 12.8 µM. Turning to `Cc1ccc(C)c2sc(N3CCN(C(=O)c4ccc([N+](=O)[O-])o4)CC3)nc12`, the EC50 was 5.58 µM. To `Cc1ccc(Oc2ccc3c(c2)C(=O)N(c2cccc4cccnc24)C3=O)cc1` belongs 2.91 µM.

What is called EC50 is the concentration needed to bring the measured effect to its halfway point.
